Patent publication US20230346827A1 (priority 2020, published 2023)

Key:
[1] = tested on: PBMC and HUVEC + LPS (TLR4 ligand); assay: BioMAP LPS system; type: cell-based, human; conditions: annotated relative to vehicle controls
Description: (§1) Cell types and stimuli used in each system are as follows: 3C system [HUVEC + (IL-1β, TNFα and IFNy)], 4H system [HUVEC + (IL-4 and histamine)], LPS system [PBMC and HUVEC + LPS (TLR4 ligand)], SAg system [PBMC and HUVEC + TCR ligands], BT system [CD19+ B cells and PBMC + (α-IgM and TCR ligands)], BF4T system [bronchial epithelial cells and HDFn + (TNFα and IL-4)], BE3C system [bronchial epithelial cells + (IL-1β, TNFα and IFNy)], CASM3C system [coronary artery smooth muscle cells + (IL-1 β, TNFα and IFNy)], HDF3CGF system [HDFn + (IL-1β, TNFα, IFNy, EGF, bFGF and PDGF-BB)], KF3CT system [keratinocytes and HDFn + (IL-1β, TNFα, IFNy and TGFβ)], MyoF system [differentiated lung myofibroblasts + (TNFα and TGFβ)] and Mphg system [HUVEC and M1 macrophages + Zymosan (TLR2 ligand)].
(§2) Systems are derived from either single cell types or co-culture systems. Adherent cell types are cultured in 96 or 384-well plates until confluence, followed by the addition of PBMC (SAg and LPS systems). […] Soluble factors from supernatants are quantified using either HTRF® detection, bead-based multiplex immunoassay or capture ELISA. Overt adverse effects of test agents on cell proliferation and viability (cytotoxicity) are detected by sulforhodamine B (SRB) staining, for adherent cells, and alamarBlue® reduction for cells in suspension. […]

[2] = tested on: HDFn + (IL-1β, TNFα, IFNy, EGF, bFGF and PDGF-BB); assay: BioMAP HDF3CGF system; type: cell-based, human; conditions: annotated relative to vehicle controls
Description: as §1, §2

ALS patients = assay: Serum metabolites (HPLC) in ALS patients before/after five weekly LMW-DS 1.0 mg/kg s.c. (Example 12); type: in vivo, human; conditions: post- vs pre-treatment
Experimental: After an initial screening visit, patients had five weekly dosing of a single LMW-DS (ILB®, Tikomed AB, Viken, Sweden, WO 2016/076780) injection of 1.0 mg/kg body weight in saline into the subcutaneous fat of the lower abdomen.
Peripheral venous blood samples were been collected from the patients after at least 15 minutes of complete rest, using the standard tourniquet procedure, from the antecubital vein into a single VACUETTE® polypropylene tube containing serum separator and clot activator (Greiner-Bio One GmbH, Kremsmunster, Austria). After 30 minutes at room temperature, blood withdrawals were centrifuged at 1,890 × g for 10 min and the resulting serum samples were stored at -20° C. until analysis.
After defrost, an aliquot of 500 µl of each serum sample was supplemented with 1 ml of HPLC-grade acetonitrile, vortexed for 60 seconds, centrifuged at the maximum speed in a top-bench centrifuge to precipitate proteins. Supernatants were washed with large volumes of HPLC-grade chloroform to remove organic solvent, centrifuged and the upper aqueous phases were transferred in different tubes, clearly labeled to identify the sample and stored at -80° C. until analyzed to determine different water-soluble compounds.
A second aliquot of about 300 µl of each serum sample was light-protected and then processed to extract fat-soluble antioxidants using a method described in detail elsewhere (Lazzarino et al., Single-step preparation of selected biological fluids for the high performance liquid chromatographic analysis of fat-soluble vitamins and antioxidants. J Chromatogr A. 2017; 1527: 43-52.). Briefly, samples were supplemented with 1 ml of HPLC-grade acetonitrile, vigorously vortexed for 60 s and incubated at 37° C. for 1 h in a water bath under agitation, to allow the full extraction of lipid soluble compounds. Samples were then centrifuged at 20,690 × g for 15 min at 4 C to precipitate proteins and the clear supernatants were saved at -80° C. until the HPLC analysis of fat-soluble vitamins and antioxidants.
In deproteinized serum samples, the following water-soluble compounds were separated and quantified by HPLC, according to methods described elsewhere (Tavazzi et al., Simultaneous high performance liquid chromatographic separation of purines, pyrimidines, N-acetylated amino acids, and dicarboxylic acids for the chemical diagnosis of inborn errors of metabolism. Clin Biochem. 2005; 38: 997-1008; Romitelli et al., Comparison of nitrite/nitrate concentration in human plasma and serum samples measured by the enzymatic batch Griess assay, ion-pairing HPLC and ion-trap GC-MS: The importance of a correct removal of proteins in the Griess assay. J Chromatogr B Analyt Technol Biomed Life Sci. 2007; 851: 257-267; Amorini et al., Metabolic profile of amniotic fluid as a biochemical tool to screen for inborn errors of metabolism and fetal anomalies. Mol Cell Biochem. 2012; 359: 205-216): hypoxhantine, xanthine, uric acid, malondialdehyde (MDA), nitrite, nitrate, N-acetylaspartate (NAA), citrulline (CITR), alanine (ALA), and ornithine (ORN).
The following fat-soluble vitamins and antioxidants in deproteinized serum samples were separated and quantified by HPLC according to a method as previously described (Lazzarino et al., Cerebrospinal fluid ATP metabolites in multiple sclerosis. Mult Scler J. 2010; 16: 549-554): α-tocopherol (vitamin E) and γ-tocopherol. In addition to the abovementioned fat-soluble antioxidants and vitamins, also the concentration of total bilirubin was determined in serum samples.
Comparison of the Pre- and Post-treatment subgroups was performed by the two-tailed Student’s t-test for paired samples. The comparison of each subgroup with the group of control healthy subjects was carried out by the two-tailed non-parametric Mann-Whitney U-test for unpaired observations. Differences with p < 0.05 were considered statistically significant.

sodium salt of dextran sulfate [LMW-DS]
Decreased biomarker activity [1]: sTNFα
Increased biomarker activity [1]: IL-8
Decreased biomarker activity [2]: VCAM-1, IP-10, ITAC, MIG, M-CSF
Increased biomarker activity [2]: EGFR, MMP-1, PAI-1
serum ALA (ALS patients): normalized
serum CITR (ALS patients): ameliorated
serum MDA (ALS patients): decreased
serum NAA (ALS patients): Significantly lower
serum ORN/CITR ratio (ALS patients): ameliorated
serum nitrate (ALS patients): decreased
serum nitrite + nitrate (ALS patients): decreased
serum sum of oxypurines (ALS patients): decreased
serum total bilirubin (ALS patients): decreased
serum uric acid (ALS patients): decreased
serum α-tocopherol (ALS patients): ameliorated
serum γ-tocopherol (ALS patients): ameliorated
